Test results published in patent publication US20130143855A1, “METHOD TO ALLEVIATE DIABETIC END STAGE RENAL DISEASE” (BOARD OF REGENTS OF THE UNIVERSITY OF TEXAS SYSTEM, priority 2010, published 2013).

What was measured:
[1] = tested on: polyunsaturated fatty acid-induced mitochondrial Ca2+ efflux (PIMCE); details: applicant's previous studies, basis of the dose; cited from earlier work
[2] = tested on: db/db mice challenged with high fat diet (HF), ESRD model; experiment: Kidney function of HF-fed db/db mice (24 h urinary albumin, urine output, serum creatinine); format: in vivo, mouse
Description: (§1) Male db/db (BKS.Cg-m+/+Lepr^db/J), age and sex matched db/+ mice were acquired from Jackson Laboratories at age of 10 weeks and housed 4/cage or less. Animals were habitat for 2 weeks in a temperature- and humidity-controlled facility with a 12:12-h light-dark cycle, fed ad libitum with RD (7012 Teklad LM-485, Harlan Laboratories) and had free access to water.
(§2) The mice were challenged with HF (60.3% calories from fat, TD.06414, Harlan Laboratories) starting at 12 weeks of age as depicted in FIG. 1A. The HF challenge was divided into two phases: the first phase lasted 2 weeks followed by a 4-week RD feeding. The second phase of HF feeding followed the 4-week RD interval and continued to the end of the experiments (5 weeks). At the beginning of the second HF feeding, db/db mice were randomly divided into 2 groups and intraperitoneally injected with either Saline (vehicle, db/db-HF-S) or 17-DMAG (6.5 μg/Kg bodyweight, db/db-HF-D). The animal protocols were approved by the Institutional Animal Care and Use Committee (0707-001), UT Health Science Center at San Antonio.
Urine collection and other physical parameters were measured following the schedule in FIG. 1A. 24 h urine samples were collected from individual mice and urinary albumin concentration was determined using a murine albumin enzyme-linked immunosorbent assay (Albuwell M Kit; Exocell, Philadelphia, Pa.). Serum creatinine concentrations were determined by the Creatinine Companion kit (Exocell).

[3] = tested on: 3-nitrotyrosine (3-NT) in kidney; experiment: 3-NT levels in kidney by western blot and immunochemistry; format: in vivo, mouse; details: db/db-HF-D vs db/db-HF-S
Method: (§3) Western blot or immunochemistry was performed with polyclonal (pAb) and/or monoclonal (mAb) primary antibodies to detect hsp90β1 and 3-NT levels as previously described. The primary antibodies used in western blots were as follows: mAb anti-3-NT (1:1000, clone 1A6, Millipore); rabbit pAb anti-3-NT (1:1000, Millipore); pAb anti-GRP94 (1:1000, Santa Cruz Biotechnology), mAb anti-Complex 1 (1:2000) and mAb anti-α-tubulin (1:1000). For the immunochemistry staining with mouse antibody, a specific procedure was performed as previously described to eliminate the direct interaction between antigen and secondary antibody.

[4] = tested on: LA-induced [Ca2+]m efflux in kidney mitochondria; experiment: Linoleic acid-induced [Ca2+]m efflux in kidney mitochondria; format: in vivo, mouse
Method: (§4) Kidney mitochondria were prepared from db/+ or db/db mice and LA-induced [Ca^2+]m and peroxynitrite were assessed as previously described.

[5] = tested on: HF-fed db/db mice with ESRD; experiment: Kaplan-Meyer survival analysis of HF-fed mice; format: in vivo, mouse
Description: as §2
Results presented as mean±S.E and Student's t-test was used to evaluate the differences between two groups. Kaplan-Meyer survival analysis was performed using the log-rank statistic to test for a significant difference among the survival curves. Differences were considered statistically significant at P<0.05.

hsp90β1 [6] = biological target: hsp90β1 (Homo sapiens, UniProt P14625); details: prolonged treatment of cells; cited from earlier work
[7] = tested on: peroxynitrite generation in kidney mitochondria; experiment: Linoleic acid-induced peroxynitrite generation in kidney mitochondria; format: in vivo, mouse; details: db/db-HF-D; did not reach statistical significance; FIG. 4F
Method: as §4

hsp90β1 [8] = biological target: T1, hsp90β1 (Mus musculus, UniProt P08113); experiment: Western blot of hsp90β1 in kidney homogenate and isolated kidney mitochondria; format: in vivo; details: db/db-HF-D vs db/db-HF-S, daily injection
T1 construct: We measured the effect of daily 17-DMAG injection on hsp90β1 levels in the kidney of db/db-HF mice; from tissue; host or cells: kidney homogenate and isolated kidney mitochondria of HF-fed db/db mice
Method: as §3

[9] = tested on: kidney glomeruli and tubules of HF-fed db/db mice; experiment: Kidney histopathology (HE, PAS, Masson's trichrome) of HF-fed mice; format: in vivo, mouse
Description: as §1, §2
Formalin-fixed, paraffin-embedded kidney sections were stained with haematoxylin and eosin (HE), periodic acid-Schiff (PAS), or Masson's trichrome and analyzed to evaluate kidney damages in a blinded manner. The area of glomerular PAS staining was measured by image analysis using Image-Pro Plus 4.5 (Media Cybernetics, Silverspring, Md.). A semi-quantitative assessment was performed in HE stained slides to evaluate the extent of tubular damage and graded from 1 to 5 as follows: 1: vacuolation of cytoplasm in <20% of tubules; 2: vacuoles in 20% to 40% of tubules; 3: vacuoles in 40% to 60% tubules with minimal distortion of tubular structures; 4: vacuoles in 60% to 80% of tubules with large and marked distortion of tubular profiles, pyknotic nuclei, patches of tubular atrophy and tubular degeneration; and 5: >80% of tubules with severe vacuolation, or tubular atrophy and degeneration. The fractal collagen volume was assessed by point counter grid using ImageJ (NIH) program to quantify the blue stain in the trichrome-stained sections.

[10] = db/db-HF-D vs db/db-HF-S, FIG. 2G/2H

T1 sequence (P08113 22-802): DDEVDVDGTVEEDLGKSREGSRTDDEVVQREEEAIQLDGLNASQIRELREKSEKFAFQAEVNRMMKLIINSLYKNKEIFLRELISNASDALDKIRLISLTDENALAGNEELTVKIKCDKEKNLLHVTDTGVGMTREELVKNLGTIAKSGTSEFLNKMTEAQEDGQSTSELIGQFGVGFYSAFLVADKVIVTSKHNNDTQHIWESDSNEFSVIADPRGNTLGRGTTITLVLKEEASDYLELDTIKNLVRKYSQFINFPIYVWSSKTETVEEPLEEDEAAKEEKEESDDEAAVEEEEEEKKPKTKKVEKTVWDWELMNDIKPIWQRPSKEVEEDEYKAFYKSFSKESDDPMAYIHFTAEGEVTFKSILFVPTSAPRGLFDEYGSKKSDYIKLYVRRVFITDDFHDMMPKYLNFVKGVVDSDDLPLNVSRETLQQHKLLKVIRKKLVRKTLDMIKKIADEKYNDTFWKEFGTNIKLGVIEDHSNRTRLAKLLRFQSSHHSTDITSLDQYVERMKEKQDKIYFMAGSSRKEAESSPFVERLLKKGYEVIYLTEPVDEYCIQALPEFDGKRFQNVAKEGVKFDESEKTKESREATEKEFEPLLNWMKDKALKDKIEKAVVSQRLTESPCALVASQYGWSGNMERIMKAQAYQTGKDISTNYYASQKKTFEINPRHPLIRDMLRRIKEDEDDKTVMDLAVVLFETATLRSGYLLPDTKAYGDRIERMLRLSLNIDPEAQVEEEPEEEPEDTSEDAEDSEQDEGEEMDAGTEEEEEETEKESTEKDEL
Chain of hsp90β1 (Homo sapiens, UniProt P14625) (P14625 22-803): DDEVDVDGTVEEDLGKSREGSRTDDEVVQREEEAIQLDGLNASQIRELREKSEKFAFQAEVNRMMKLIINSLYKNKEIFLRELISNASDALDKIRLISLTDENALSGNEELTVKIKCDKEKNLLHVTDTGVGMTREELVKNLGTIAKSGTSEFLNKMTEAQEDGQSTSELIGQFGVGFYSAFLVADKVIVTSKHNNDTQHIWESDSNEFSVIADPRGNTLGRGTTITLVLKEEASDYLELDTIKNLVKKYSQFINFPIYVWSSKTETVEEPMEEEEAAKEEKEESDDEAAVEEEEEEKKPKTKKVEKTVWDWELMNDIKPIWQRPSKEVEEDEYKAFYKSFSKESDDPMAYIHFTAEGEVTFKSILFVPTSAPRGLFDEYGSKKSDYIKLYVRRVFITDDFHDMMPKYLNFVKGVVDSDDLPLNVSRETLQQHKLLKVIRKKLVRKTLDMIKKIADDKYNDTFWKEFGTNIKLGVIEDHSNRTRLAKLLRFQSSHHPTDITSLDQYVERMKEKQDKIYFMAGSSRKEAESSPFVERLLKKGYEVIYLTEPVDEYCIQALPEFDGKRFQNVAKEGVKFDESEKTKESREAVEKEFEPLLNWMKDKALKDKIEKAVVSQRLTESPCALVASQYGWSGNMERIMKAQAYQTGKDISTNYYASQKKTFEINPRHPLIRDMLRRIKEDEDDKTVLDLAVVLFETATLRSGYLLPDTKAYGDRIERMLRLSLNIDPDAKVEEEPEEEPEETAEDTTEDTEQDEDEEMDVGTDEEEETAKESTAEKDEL

In the case of “17-dimethylaminoethylamino-17-demethoxygeldanamycin [17-DMAG]”, the “inhibition on PIMCE” value [1] is given as “maximal inhibition”, the toxicity to cells [1] is given as “did not produce apparent toxicity” and the “24 h urine output” value ([2]; db/db-HF-D (6.5 μg/kg i.p. daily) vs db/db-HF-S, from 17th day of second HF feeding, FIG. 1E) is given as “significantly preserved”. For the same substance, the “24 h urinary albumin excretion (albuminuria)” value ([2]; db/db-HF-D (6.5 μg/kg i.p. daily, second HF challenge) vs db/db-HF-S, FIG. 1D) was “significantly diminished”, the “serum creatinine, difference between db/db-HF-D and db/+ groups” value ([2]; db/db-HF-D, 6.5 μg/kg i.p. daily) was “no significant difference” and the “serum creatinine compared to db/db-HF-S group” value ([2]; db/db-HF-D, 6.5 μg/kg i.p. daily, FIG. 1F) was “significantly lowered”. The “3-NT in kidney sections by immunohistochemistry” value ([3]; FIG. 5C-E) was “effectively reduced”, the “3-NT level, bands with MW<50kDa, western blot with polyclonal anti-3-NT antibody” value ([3]; kidney homogenates, FIG. 5A) was “significant 3-NT level reduction” and the “3-NT levels in proteins <50 kDa, western blot with monoclonal antibody” value ([3]; kidney homogenates, FIG. 5B) was “significantly lowered”. For the same substance, the “rate and amplitude of LA-induced [Ca2+]m signal, difference between db/db-HF-D and db/+ groups” value ([4]; db/db-HF-D vs db/+) was “no significant differences”, the “LA-induced [Ca2+]m efflux in kidney mitochondria” value ([4]; db/db-HF-D vs db/db-HF-S, FIG. 4C-E) was “significantly diminished” and the “rate and amplitude of LA-induced [Ca2+]m responses” value ([4]; db/db-HF-D vs db/db-HF-S, FIG. 4D, 4E) was “effectively attenuated”. The “mortality in HF-fed db/+ mice” value ([5]; db/+-HF-S and db/+-HF-D groups) was “no mortality”, the survival rate ([5]; db/db-HF-D vs db/db-HF-S, log-rank, FIG. 3) was “significantly improved” and the “degradation and downregulation of hsp90β1” value (hsp90β1 [6]) was “caused degradation and downregulation”. The LA-induced peroxynitrite generation [7] was “attenuated”, the “hsp90β1 levels in kidney homogenates” value (hsp90β1 [8]; FIG. 4A) was “similar” and the “hsp90β1 levels in isolated kidney mitochondria” value (hsp90β1 [8]; FIG. 4B) was “significantly reduced”. The “glomerular and tubular abnormalities in HF-fed db/+ mice” value ([9]; HF-fed db/+ mice treated with 17-DMAG, FIG. 2B) was “did not exhibit any glomerular and tubular abnormalities”, the tubular vacuolation ([9]; db/db-HF-D group (also in db/db-HF-S)) was “evidenced” and the “segmental glomerulosclerosis (HE staining, 100×)” value ([9]; db/db-HF-D vs db/db-HF-S, FIG. 2C/2D) was “largely prevented”. The “tubular atrophy and degeneration (HE staining)” value ([9]; db/db-HF-D vs db/db-HF-S, FIG. 2E/2F) was “dramatic protection”, the “segmental glomerulosclerosis and mesangial matrix expansion (PAS, 200×), glomerular lesions” value [9, 10] was “amiiorated” and the “tubulointerstitial fibrosis (PAS-stained tubulointerstitium)” value [9, 10] was “largely prevented”. For the same substance, the “accumulation of tubulointerstitial collagen (Masson's trichrome)” value ([9]; db/db-HF-D vs db/db-HF-S, FIG. 2I/2J) was “effectively reduced”, the “tubular damage (index, morphometric quantification)” value ([9]; db/db-HF-D vs db/db-HF-S, FIG. 2K) was “significant alleviation” and the “mesangial matrix expansion (morphometric quantification)” value ([9]; db/db-HF-D vs db/db-HF-S, FIG. 2L) was “significant alleviation”. For the same substance, the “collagen accumulation (morphometric quantification)” value ([9]; db/db-HF-D vs db/db-HF-S, FIG. 2M) was “significant alleviation”.
